Measurements reported in paper PMC11323011, “Combatting Antibiotic-Resistant Staphylococcus aureus: Discovery of TST1N-224, a Potent Inhibitor Targeting Response Regulator VraRC, through Pharmacophore-Based Screening and Molecular Characterizations” (Journal of Chemical Information and Modeling, 2024).

Target: T1, VraRC (C-terminal DNA-binding domain of response regulator VraR) (Staphylococcus aureus, UniProt Q7A4R9)
T1 construct: residues 138-209), C-terminal His-tag
Test: LSPR (VraRC immobilized on NTA chip, […] fit); supported by 1H-15N HSQC NMR titration and FP inhibition of DNA binding (IC50 […])

T1 sequence (Q7A4R9 138-209): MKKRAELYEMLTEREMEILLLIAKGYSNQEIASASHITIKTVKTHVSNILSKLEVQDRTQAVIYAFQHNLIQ

TST1N-224
Kd: 23.4 ± 1.2 µM
